{"source": "patent US20240277682A1", "about": "“PHARMACEUTICAL HYDRONIDONE FORMULATIONS FOR DISEASES” (Gyre Therapeutics, Inc., priority 2021, published 2024)", "key": {"[1]": {"assay": "Safety, tolerability and PK of single doses, 7-day and 4-week multiple oral doses (Example 10)", "type": "in vivo, human", "method": "This was a randomized, open-label, study of safety, tolerability and PK of single doses, 7-day, and 4-week multiple oral doses of Hydronidone in healthy Chinese subjects.\nThis study was conducted in three parts. In the first part single escalating doses of Hydronidone of 15 mg, 30 mg, 60 mg, 90 mg, and 120 mg/day were administered to six (6), eight (8), eight (8), six (6), six (6) healthy subjects, respectively, as per the Fibonacci Escalating Method (modified Fibonacci method). […] As no adverse experiences were reported at any dose level, the two highest single dose levels of 90 mg and 120 mg of Hydronidone were selected for the second part of the study, and were administered TID to 6 subjects each, for seven consecutive days. Thus, total daily doses of Hydronidone in these two dose groups were 270 mg and 360 mg, respectively. All subjects completed the seven-day dosing regimen without premature discontinuation. No clinically-significant abnormal changes in vital signs, ECG and laboratory test results of each group of subjects were found. In the third part of the study, six (6) subjects were given oral Hydronidone at a daily dose of 60 mg TID (total daily dose of 180 mg) for four (4) consecutive weeks. All subjects completed the seven-day dosing regimen without premature discontinuation. No clinically-significant abnormal changes in vital signs, ECG and laboratory test results of each group of subjects were found.\nPK assessments were performed in each part of the study. In the single part of the study, the PK parameters also included food effect assessment."}, "[2]": {"assay": "In vitro drug-drug interaction with Entecavir and Lamivudine in human liver microsomes", "quoted_text": "Entecavir and Lamivudine, were used concomitantly with Hydronidone, or individually, in the in vitro drug interaction experiments, in respective concentrations of each of 1.5 mM."}, "[3]": {"test_system": "liver fibrosis due to chronic Hepatitis B", "assay": "Phase II study in subjects with liver fibrosis due to chronic Hepatitis B, 52 weeks, Entecavir basic treatment (Examples 11-21)", "type": "in vivo, human", "method": "This is a Phase II, randomized, double-blind, placebo-controlled, Entecavir-Basic Treatment, multi-center, dose-ranging study on the efficacy and safety of Hydronidone when administered to Chinese subjects with liver fibrosis due to chronic Hepatitis B for 52 consecutive weeks.\nApproximately 240 eligible subjects, approximately 60 subjects per dose cohort, are planned to be enrolled in the study and treated daily with Hydronidone oral doses of 30 mg, 60 mg. or 120 mg TID (total daily doses of […], […], and 360 mg, respectively) for 52 consecutive weeks or placebo, concomitantly with basic anti-viral treatment with Entecavir at a daily dose of 0.5 mg. In parallel, a group of 12 subjects will be evaluated for PK."}, "[4]": {"test_system": "liver fibrosis", "assay": "CCl4-induced liver fibrosis in mice", "type": "in vivo", "method": "Hydronidone anti-fibrotic effects were evaluated in several animal models of liver fibrosis, such as human serum albumin (HSA)-induced liver fibrosis in rats, dimethyl nitrosamine (DMN)-induced liver fibrosis in rats, and carbon tetrachloride (CCl4)-induced liver fibrosis in mice. […] In the CCl4-induced liver fibrosis in mice, Hydronidone effects were the most prominent at the doses of 3-10 mg/kg/day, although some effects were also shown at the dose of 1 mg/kg/day. In some embodiments, this dose range corresponds to human equivalent dose (HED) range of 15-50 mg. […] The HED of these rat doses are in the range of 100-2,400 mg which were all tested as safe in Phase I clinical trials of Hydronidone, with the 100 mg dose being […] the maximum daily dose of 360 mg (administered as 120 mg TID) administered to the subjects with liver fibrosis due to chronic Hepatitis B in the ongoing Phase II clinical study of efficacy and safety of Hydronidone in China."}, "[5]": {"target": "human CYP 3A4 (Homo sapiens, UniProt P08684)", "sequence (P08684 whole entry)": "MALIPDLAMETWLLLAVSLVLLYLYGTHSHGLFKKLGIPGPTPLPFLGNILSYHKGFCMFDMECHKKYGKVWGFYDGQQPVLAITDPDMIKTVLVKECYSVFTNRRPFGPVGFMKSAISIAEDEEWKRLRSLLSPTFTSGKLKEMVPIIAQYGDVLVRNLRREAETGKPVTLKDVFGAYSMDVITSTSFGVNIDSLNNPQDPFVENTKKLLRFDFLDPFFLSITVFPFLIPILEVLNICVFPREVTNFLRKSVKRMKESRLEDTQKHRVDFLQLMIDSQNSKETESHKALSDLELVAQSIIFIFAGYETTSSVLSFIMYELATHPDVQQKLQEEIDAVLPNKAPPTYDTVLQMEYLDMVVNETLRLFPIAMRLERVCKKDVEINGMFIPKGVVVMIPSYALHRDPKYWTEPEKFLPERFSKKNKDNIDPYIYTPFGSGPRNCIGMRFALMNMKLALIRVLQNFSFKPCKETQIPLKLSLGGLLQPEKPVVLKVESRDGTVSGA", "assay": "CYP450 inhibition, fluorescence of metabolic substrates", "method": "(§1) In vitro study investigated whether Hydronidone is inhibitor for human cytochrome P450 (CYP450). The effects of different Hydronidone concentrations were determined by the fluorescence intensity of metabolic substrates of CYP1A2, 2C9, 2C19, 2 D6 and 3A4, produced under the effect of the relevant enzyme. The respective IC50 value were calculated in the event of observed inhibition with hydronidone."}, "[6]": {"target": "human CYP 2C19 (Homo sapiens, UniProt P33261)", "sequence (P33261 whole entry)": "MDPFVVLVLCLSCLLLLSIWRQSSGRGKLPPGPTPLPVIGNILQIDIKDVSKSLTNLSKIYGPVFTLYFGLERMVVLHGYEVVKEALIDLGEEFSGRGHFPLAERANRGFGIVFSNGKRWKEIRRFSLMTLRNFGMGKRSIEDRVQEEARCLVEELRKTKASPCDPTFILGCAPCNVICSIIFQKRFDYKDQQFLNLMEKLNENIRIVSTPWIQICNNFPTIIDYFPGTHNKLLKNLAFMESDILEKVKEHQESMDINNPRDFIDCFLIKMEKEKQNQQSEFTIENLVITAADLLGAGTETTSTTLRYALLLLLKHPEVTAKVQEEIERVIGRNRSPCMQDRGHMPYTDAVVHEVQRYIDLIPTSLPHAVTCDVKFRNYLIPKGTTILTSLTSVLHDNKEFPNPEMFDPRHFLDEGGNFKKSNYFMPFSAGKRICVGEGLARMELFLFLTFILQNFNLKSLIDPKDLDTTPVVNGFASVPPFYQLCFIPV", "assay": "CYP450 inhibition, fluorescence of metabolic substrates", "method": "as §1"}, "[7]": {"target": "human CYP 2C9 (Homo sapiens, UniProt P11712)", "sequence (P11712 whole entry)": "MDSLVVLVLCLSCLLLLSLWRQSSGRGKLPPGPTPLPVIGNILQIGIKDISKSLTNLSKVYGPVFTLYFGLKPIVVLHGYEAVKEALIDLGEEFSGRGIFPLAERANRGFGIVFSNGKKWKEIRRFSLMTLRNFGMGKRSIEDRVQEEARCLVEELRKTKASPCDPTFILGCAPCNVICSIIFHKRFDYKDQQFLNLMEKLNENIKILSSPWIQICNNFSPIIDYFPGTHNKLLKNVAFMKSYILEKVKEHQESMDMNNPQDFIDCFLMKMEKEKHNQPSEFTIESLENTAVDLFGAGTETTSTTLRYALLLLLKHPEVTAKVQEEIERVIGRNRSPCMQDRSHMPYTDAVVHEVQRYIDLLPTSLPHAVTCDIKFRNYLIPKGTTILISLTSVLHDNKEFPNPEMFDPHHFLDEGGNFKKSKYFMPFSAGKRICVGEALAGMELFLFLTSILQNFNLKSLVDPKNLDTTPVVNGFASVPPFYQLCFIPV", "assay": "CYP450 inhibition, fluorescence of metabolic substrates", "method": "as §1"}, "[8]": {"target": "human CYP 2 D6 (Homo sapiens, UniProt P10635)", "sequence (P10635 whole entry)": "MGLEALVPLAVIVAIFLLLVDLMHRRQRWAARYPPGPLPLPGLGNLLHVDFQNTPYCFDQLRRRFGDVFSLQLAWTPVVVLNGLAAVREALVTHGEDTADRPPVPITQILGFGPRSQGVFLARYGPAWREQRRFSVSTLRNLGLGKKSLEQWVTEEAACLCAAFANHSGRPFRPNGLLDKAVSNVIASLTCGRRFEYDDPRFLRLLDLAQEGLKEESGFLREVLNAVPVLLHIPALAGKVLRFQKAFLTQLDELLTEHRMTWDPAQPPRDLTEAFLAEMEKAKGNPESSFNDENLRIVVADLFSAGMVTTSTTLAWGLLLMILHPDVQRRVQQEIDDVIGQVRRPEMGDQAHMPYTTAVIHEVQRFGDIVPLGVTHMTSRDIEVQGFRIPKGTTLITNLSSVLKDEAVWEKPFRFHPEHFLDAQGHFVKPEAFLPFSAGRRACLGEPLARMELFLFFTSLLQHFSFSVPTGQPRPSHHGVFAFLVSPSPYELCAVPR", "assay": "CYP450 inhibition, fluorescence of metabolic substrates", "method": "as §1"}}, "data": [{"compound": "Cc1ccc(=O)n(-c2ccc(O)cc2)c1", "note": "[Hydronidone, N-(4-hydroxyphenyl)-5-Methyl-2-pyridone]", "values": [{"measurement": "maximum tolerated single oral dose", "setting": "[1]; healthy subjects", "result": 120, "unit": "mg"}, {"measurement": "Tmax", "setting": "[1]; human, in vivo, po, 120 mg", "result": "36 ± 29.4", "unit": "min"}, {"measurement": "QTc interval", "setting": "[1]; in vivo", "result": "no abnormal prolongation of the QTc interval"}, {"measurement": "subjects with increase in T-BIL and D-BIL post-dose values", "setting": "[1]; in vivo", "result": "Three"}, {"measurement": "role of liver metabolism as metabolic pathway", "setting": "[2]", "result": "the liver metabolism is not the main Hydronidone metabolic pathway"}, {"measurement": "Ishak score improvement in patients of significant fibrosis", "setting": "[3]; 52 weeks", "result": "consistent with the results of primary endpoint analysis"}, {"measurement": "improvement in HBeAg(−) vs HBeAg(+) patients", "setting": "[3]; 52 weeks", "result": "better than in HbeAg(+) patients"}, {"measurement": "response in HBV DNA+ patients", "setting": "[3]; HBV DNA+ after 52 weeks Entecavir therapy, Ishak>3", "result": "all patients (Ishak>3) responded"}, {"measurement": "Ishak score ≥1 (primary endpoint)", "setting": "[3]; after 52 weeks of therapy, with Entecavir", "result": "significantly lower the Ishak score"}, {"measurement": "intra group Ishak score change", "setting": "[3]; after 52 weeks, all drug groups", "result": "statistically significant decline of Ishak score≥1"}, {"measurement": "change of liver stiffness measurement LSM", "setting": "[3]; after 52 weeks, all drug groups, intra group P<0.01", "result": "decline of LSM(kPa)"}, {"measurement": "Ishak score changes", "setting": "[3]; baseline HBeAg (+) patients after 52 weeks", "result": "statistical significant changes when dose groups are combined"}, {"measurement": "Ishak score changes", "setting": "[3]; baseline HBeAg (−) patients after 52 weeks", "result": "statistical significant changes when dose groups are combined"}, {"measurement": "fibrosis in patients of significant fibrosis and cirrhosis", "setting": "[3]; combination of 270 mg and 360 mg groups", "result": "can improve fibrosis"}, {"measurement": "fibrosis in patients of significant fibrosis and cirrhosis", "setting": "[3]; combination of all drug groups", "result": "can improve fibrosis"}, {"measurement": "LSM scores", "setting": "[3]; combination of drug groups, Advanced Fibrosis (Ishak≥4)", "result": "showed statistical significance"}, {"measurement": "best dose group (patients of significant fibrosis)", "setting": "[3]; total daily dose, 52 weeks", "result": 270, "unit": "mg"}, {"measurement": "anti-fibrotic effect (level of fibrosis, hydroxyproline, ALT, AST)", "setting": "[4]", "result": "potent anti-fibrotic effect"}, {"measurement": "dose at which some effects were also shown", "setting": "[4]", "result": 1, "unit": "mg/kg/day"}, {"measurement": "doses at which effects were the most prominent", "setting": "[4]", "result": "3 to 10", "unit": "mg/kg/day"}, {"measurement": "IC50", "setting": "[5]", "result": "> 100", "unit": "µM"}, {"measurement": "IC50", "setting": "[6]", "result": "> 100", "unit": "µM"}, {"measurement": "IC50", "setting": "[7]", "result": "> 100", "unit": "µM"}, {"measurement": "IC50", "setting": "[8]", "result": "> 100", "unit": "µM"}]}]}
